Results: ChEMBL document CHEMBL1201862, “PubChem BioAssay data set” (2004)
Active and inactive are the calls of the source.

Legend:
[1] = nonselective StAR promoter luciferase inhibitors – cell-based, luminescence, luciferase reporter, counter-screen for LRH-1 inverse agonist project, dose response (AID 651969); format: functional
[2] = biological target: Steroidogenic factor 1 (Homo sapiens, UniProt Q13285); assay: Counterscreen for inverse agonists of the liver receptor homolog-1 (LRH-1; NR5A2): Luminescence-based cell-based high throughput dose response assay to identify inverse agonists of the Steroidogenic Factor 1 Nuclear Receptor (SF1; NR5A1).; format: functional
[3] = biological target: Nuclear receptor subfamily 5 group A member 2 (Homo sapiens, UniProt O00482); format: functional, cell-based;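 further: HEK293T cells transfected with LRH-1 and a StAR promoter luciferase reporter; potency for inhibitors that lower LRH-1 driven reporter light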
[4] = biological target: T1, RNA-binding protein pos-1 (Caenorhabditis elegans, UniProt G5EF15); assay: disruptors of C. elegans POS-1 RNA interaction – biochemical, fluorescence polarization, dose response (AID 1964);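 further: purified POS-1 fused to maltose binding protein made in E. coli; potency of compounds blocking POS-1 binding to fluorescent RNA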
T1 sequence (G5EF15 whole entry): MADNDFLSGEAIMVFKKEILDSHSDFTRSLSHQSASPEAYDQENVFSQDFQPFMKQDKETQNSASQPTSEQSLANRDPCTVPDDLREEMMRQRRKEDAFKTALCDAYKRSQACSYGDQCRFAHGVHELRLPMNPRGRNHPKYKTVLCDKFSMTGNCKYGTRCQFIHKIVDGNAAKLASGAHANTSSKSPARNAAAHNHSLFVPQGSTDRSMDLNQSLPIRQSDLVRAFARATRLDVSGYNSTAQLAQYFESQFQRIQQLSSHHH

[5] = biological target: T2, Zinc finger protein mex-5 (Caenorhabditis elegans, UniProt Q9XUB2); assay: potency of MEX-5 RNA-binding blockers – biochemical, C. elegans, fluorescence polarization, dose response (AID 1960)
T2 sequence (Q9XUB2 whole entry): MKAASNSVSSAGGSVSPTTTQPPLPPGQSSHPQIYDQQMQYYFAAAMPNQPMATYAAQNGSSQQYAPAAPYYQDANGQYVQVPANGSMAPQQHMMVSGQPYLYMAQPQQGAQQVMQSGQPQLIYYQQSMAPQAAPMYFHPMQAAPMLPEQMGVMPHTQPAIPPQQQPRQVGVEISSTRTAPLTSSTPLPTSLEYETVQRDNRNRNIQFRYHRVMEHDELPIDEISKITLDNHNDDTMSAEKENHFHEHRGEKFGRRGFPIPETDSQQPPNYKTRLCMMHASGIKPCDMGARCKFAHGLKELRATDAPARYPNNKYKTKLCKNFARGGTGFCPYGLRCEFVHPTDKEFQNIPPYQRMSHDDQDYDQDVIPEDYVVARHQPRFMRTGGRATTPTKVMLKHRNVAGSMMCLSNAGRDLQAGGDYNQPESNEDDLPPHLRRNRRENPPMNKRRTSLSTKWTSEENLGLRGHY

[6] = viability loss in HeLa cells – cytotoxicity control for MgcRacGAP inhibitor project, dose response (AID 624300); format: functional
[7] = biological target: T3, Rac GTPase-activating protein 1 (Homo sapiens, UniProt Q9H0H5); assay: blockers of MgcRacGAP-driven Rac1 GTP hydrolysis – biochemical, ADP Hunter fluorescence, primary and confirmatory, confirmation (AID 624330); format: functional
T3 sequence (Q9H0H5 whole entry): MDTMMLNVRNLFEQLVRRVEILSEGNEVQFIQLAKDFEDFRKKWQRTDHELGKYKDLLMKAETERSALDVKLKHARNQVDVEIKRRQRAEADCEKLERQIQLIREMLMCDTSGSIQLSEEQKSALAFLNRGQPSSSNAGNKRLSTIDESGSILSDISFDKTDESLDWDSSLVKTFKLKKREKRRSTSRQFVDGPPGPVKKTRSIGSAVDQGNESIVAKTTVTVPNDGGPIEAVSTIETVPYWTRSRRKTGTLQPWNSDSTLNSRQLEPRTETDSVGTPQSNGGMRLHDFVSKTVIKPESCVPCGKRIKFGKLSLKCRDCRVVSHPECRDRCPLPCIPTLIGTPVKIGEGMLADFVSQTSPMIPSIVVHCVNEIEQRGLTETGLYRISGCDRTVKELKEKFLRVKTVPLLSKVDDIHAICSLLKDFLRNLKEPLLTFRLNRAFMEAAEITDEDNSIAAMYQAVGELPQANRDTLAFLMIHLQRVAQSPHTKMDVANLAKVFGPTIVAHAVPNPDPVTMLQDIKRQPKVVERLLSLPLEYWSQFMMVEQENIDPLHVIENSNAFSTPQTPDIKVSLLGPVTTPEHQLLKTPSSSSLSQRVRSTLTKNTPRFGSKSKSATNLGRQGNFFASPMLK

[8] = biological target: SWI/SNF-related matrix-associated actin-dependent regulator of chromatin subfamily A member 2 (Homo sapiens, UniProt P51531); assay: Luminescence-based cell-based high throughput dose response assay to identify activators of the function of SWI/SNF related, matrix associated, actin dependent regulator of chromatin, subfamily a, member 2 (SMARCA2, BRM).; format: functional
[9] = biological target: T4, DNA repair and recombination protein RAD54-like (Homo sapiens, UniProt Q92698); assay: RAD54 Holliday junction migration blockers – biochemical, fluorescence, cherry-picked samples, dose series, confirmation (AID 651657); format: functional
T4 sequence (Q92698 whole entry): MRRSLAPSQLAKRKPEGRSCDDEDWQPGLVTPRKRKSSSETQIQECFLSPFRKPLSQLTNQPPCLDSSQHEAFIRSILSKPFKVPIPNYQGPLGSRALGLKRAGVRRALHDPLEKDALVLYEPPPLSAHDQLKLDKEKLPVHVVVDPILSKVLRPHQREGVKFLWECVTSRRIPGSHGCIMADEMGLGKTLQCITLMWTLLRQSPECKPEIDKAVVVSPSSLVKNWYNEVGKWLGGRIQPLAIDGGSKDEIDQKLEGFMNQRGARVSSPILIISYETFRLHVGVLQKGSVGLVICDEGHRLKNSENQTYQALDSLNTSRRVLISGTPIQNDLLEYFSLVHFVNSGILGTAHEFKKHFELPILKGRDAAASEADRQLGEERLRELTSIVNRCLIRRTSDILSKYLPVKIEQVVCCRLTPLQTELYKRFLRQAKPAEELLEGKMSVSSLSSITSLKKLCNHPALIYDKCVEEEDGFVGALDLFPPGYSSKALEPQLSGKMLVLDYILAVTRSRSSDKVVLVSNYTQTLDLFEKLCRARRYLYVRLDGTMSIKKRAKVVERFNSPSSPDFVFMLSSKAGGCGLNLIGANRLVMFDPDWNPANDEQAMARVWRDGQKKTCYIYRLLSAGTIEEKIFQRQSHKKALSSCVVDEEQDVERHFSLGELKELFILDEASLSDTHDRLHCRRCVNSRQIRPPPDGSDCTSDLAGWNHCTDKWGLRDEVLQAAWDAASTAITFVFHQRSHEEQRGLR

[10] = test system: H4; assay: Luminescence Cell-Based Dose Response HTS to Identify Activators of 5'UTR Stem-Loop Driven Prion Protein mRNA Translation in H4 Neuroglioblastoma Cells. [Related pubchem assays: 1829 (Project Summary), 1814 (Primary HTS)]; format: functional; conditions: Homo sapiens
[11] = biological target: T5, DNA repair protein RAD52 homolog (Homo sapiens, UniProt P43351); format: functional, biochemical
T5 sequence (P43351 whole entry): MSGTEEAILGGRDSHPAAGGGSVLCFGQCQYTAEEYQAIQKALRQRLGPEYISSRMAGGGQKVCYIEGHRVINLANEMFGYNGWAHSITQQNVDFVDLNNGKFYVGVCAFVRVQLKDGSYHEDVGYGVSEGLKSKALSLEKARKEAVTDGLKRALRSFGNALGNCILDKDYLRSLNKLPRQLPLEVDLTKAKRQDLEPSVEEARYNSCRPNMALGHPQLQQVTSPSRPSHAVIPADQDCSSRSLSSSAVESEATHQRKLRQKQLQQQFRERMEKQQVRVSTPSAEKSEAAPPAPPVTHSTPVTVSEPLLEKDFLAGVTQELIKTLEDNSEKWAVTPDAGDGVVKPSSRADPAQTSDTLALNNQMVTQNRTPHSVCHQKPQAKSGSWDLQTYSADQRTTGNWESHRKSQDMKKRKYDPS

[12] = acridine orange displacement from DNA – biochemical, fluorescence polarization, cherry-pick, artefact control for RAD54 inhibitor project, dose response (AID 651673); format: functional
[13] = Counterscreen for activators of the function of SWI/SNF related, matrix associated, actin dependent regulator of chromatin, subfamily a, member 2 (SMARCA2, BRM): Luminescence-based cell-based high throughput dose response assay to identify non-selective compounds using the VP16 reporter assay.; format: functional
[14] = Luminescence Cell-Based Dose Response HTS to Identify Activators of Luciferase Translation or Activity in H4 […] Cells. [Related pubchem assays: 1829 (Project Summary), 1814 (Primary HTS)]; format: functional
[15] = biological target: Dual specificity protein phosphatase 3 (Homo sapiens, UniProt P51452); assay: VHR phosphatase inhibition, dose response, selectivity assay for STEP inhibitor project, biochemical (AID 602374); format: functional; conditions: read-out: IC50_Mean
[16] = biological target: T6, Carboxy-terminal domain RNA polymerase II polypeptide A small phosphatase 1 (Homo sapiens, UniProt Q9GZU7); assay: CTDSP1 inhibitors, concentration-response, biochemical, absorbance readout, ultra-high-throughput screen actives (AID 540297); format: functional
T6 sequence (Q9GZU7 whole entry): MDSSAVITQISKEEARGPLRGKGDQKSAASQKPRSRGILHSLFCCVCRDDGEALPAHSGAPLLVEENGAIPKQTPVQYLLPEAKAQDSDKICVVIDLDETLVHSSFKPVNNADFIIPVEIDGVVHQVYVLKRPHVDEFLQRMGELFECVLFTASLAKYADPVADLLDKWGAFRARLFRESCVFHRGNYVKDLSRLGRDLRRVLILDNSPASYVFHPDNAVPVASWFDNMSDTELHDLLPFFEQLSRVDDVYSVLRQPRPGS

[17] = biological target: T7, Tyrosine-protein phosphatase non-receptor type 5 (Homo sapiens, UniProt P54829); assay: PTPN5 enzyme inhibition – biochemical, fluorescence intensity, uHTS hits, confirmation (AID 602372); format: functional; conditions: read-out: IC50_Mean
T7 sequence (P54829 whole entry): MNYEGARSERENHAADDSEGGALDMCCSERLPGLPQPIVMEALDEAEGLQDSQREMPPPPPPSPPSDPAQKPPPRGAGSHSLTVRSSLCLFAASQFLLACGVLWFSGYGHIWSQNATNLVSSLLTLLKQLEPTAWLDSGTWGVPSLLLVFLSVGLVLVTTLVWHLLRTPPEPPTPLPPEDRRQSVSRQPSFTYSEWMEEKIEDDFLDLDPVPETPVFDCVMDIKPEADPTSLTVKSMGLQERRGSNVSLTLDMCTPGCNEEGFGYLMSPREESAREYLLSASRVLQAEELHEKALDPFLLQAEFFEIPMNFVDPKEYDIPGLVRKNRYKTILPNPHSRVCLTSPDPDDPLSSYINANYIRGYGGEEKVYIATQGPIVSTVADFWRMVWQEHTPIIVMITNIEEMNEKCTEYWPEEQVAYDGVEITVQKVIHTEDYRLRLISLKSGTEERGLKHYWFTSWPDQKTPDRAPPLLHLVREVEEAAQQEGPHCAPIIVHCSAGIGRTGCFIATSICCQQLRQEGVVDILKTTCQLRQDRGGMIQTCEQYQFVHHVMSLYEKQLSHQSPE

[18] = biological target: T8, Tyrosine-protein phosphatase non-receptor type 11 (Homo sapiens, UniProt Q06124); assay: PTPN11 enzyme inhibitors – biochemical, selectivity assay for STEP inhibitor project, dose response (AID 602367); format: functional; conditions: read-out: IC50_Mean
T8 sequence (Q06124 whole entry): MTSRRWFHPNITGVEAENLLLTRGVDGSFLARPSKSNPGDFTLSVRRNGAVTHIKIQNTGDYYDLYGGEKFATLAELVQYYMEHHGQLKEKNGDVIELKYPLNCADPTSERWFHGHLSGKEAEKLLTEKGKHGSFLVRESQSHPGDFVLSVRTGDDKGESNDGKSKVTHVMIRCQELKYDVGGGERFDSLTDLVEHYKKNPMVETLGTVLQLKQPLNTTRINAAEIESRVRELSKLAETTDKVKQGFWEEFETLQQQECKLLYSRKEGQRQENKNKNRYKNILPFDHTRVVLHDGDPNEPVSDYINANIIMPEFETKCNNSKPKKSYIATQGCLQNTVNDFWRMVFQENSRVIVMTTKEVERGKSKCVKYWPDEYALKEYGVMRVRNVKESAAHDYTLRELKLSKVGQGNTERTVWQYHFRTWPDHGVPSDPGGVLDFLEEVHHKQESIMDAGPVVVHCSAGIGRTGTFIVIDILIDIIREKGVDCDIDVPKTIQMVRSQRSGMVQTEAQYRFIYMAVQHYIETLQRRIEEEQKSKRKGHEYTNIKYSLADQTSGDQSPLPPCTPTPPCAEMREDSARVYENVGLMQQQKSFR

[19] = biological target: 5-hydroxytryptamine receptor 2A (Mus musculus, UniProt P35363); format: functional, cell-based;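 further: CHO-K1 cells with tagged receptor and beta-arrestin; agonist potency measured as compound-induced activation of the receptor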
[20] = biological target: Mu-type opioid receptor (Homo sapiens, UniProt P35372); format: functional, cell-based;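 further: U2OS cells with beta-arrestin recruitment to OPRM1 by beta-gal complementation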
[21] = biological target: Glucose-6-phosphate 1-dehydrogenase (Homo sapiens, UniProt P11413); assay: inhibition of Homo sapiens G6PD, dose series – biochemical, fluorescence, selectivity assay for P. falciparum G6PD inhibitor project, dose response (AID 504792); format: functional
Sequence of Glucose-6-phosphate 1-dehydrogenase (P11413 whole entry): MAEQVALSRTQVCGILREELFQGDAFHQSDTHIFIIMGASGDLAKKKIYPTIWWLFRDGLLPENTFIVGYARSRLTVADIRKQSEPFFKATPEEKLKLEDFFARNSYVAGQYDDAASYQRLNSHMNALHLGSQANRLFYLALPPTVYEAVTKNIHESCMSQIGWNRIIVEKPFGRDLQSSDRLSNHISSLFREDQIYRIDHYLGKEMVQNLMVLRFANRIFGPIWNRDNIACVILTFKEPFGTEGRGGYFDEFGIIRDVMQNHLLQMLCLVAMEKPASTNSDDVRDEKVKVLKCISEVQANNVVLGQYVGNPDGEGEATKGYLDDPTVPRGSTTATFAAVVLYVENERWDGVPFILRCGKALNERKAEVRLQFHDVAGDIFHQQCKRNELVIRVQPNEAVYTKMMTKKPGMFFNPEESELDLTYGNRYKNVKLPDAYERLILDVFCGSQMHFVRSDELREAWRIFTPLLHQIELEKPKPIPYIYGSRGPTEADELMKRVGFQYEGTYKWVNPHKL

Sequence of Nuclear receptor subfamily 5 group A member 2 (O00482 whole entry, the tested form may be a part): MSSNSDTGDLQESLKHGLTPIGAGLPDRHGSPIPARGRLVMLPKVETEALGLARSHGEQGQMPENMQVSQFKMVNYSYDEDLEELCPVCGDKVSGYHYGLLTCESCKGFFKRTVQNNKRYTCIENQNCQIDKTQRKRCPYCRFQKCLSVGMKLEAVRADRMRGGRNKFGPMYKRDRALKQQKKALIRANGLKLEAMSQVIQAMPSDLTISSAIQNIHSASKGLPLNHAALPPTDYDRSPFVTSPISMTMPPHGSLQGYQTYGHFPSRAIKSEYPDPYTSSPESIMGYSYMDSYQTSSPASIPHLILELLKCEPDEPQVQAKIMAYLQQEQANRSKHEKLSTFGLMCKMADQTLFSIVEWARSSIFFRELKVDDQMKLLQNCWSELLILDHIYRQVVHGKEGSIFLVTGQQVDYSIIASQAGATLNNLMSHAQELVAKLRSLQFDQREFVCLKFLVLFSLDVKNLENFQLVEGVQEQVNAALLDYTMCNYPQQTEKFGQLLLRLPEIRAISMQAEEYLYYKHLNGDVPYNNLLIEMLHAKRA
Sequence of Steroidogenic factor 1 (Q13285 whole entry): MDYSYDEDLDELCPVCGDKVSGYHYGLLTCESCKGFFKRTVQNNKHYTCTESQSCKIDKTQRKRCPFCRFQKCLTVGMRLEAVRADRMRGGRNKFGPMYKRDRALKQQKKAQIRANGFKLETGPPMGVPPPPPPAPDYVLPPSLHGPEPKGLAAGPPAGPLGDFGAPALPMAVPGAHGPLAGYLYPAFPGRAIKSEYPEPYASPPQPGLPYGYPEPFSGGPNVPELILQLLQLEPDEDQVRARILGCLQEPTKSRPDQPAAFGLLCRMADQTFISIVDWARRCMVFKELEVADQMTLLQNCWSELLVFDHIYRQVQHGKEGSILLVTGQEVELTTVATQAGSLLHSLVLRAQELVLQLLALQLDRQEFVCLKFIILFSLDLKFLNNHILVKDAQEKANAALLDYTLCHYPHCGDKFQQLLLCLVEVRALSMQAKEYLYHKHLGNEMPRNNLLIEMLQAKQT
Sequence of 5-hydroxytryptamine receptor 2A (P35363 whole entry): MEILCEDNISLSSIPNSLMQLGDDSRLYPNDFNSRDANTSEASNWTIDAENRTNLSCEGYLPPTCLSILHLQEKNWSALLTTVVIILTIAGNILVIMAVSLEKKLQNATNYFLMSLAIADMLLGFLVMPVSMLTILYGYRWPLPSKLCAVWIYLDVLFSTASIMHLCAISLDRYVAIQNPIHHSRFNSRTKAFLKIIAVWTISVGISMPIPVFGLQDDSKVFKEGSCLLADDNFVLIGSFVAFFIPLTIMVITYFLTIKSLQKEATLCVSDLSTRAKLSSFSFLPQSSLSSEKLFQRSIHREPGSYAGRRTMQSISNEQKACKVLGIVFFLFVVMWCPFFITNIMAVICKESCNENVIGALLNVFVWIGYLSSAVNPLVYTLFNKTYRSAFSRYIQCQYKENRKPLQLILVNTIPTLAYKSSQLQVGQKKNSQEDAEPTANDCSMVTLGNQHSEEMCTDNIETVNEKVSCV
Sequence of Mu-type opioid receptor (P35372 whole entry): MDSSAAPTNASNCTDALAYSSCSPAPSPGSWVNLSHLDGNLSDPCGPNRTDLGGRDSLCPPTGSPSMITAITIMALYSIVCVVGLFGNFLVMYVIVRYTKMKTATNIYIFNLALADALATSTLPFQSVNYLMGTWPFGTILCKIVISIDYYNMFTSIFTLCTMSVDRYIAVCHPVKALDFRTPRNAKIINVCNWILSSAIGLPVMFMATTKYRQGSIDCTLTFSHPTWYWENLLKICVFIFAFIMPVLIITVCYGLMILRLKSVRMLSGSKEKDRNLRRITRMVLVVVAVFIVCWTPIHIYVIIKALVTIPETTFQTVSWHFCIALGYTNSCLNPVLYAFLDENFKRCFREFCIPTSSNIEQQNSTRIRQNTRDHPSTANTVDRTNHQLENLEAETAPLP
Sequence of Dual specificity protein phosphatase 3 (P51452 whole entry, the tested form may be a part): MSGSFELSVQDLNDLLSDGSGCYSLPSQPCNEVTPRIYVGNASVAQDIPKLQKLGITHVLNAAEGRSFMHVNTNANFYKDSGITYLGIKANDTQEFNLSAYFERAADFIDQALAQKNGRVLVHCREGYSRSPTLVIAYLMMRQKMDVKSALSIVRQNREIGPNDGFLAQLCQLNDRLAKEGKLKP
Sequence of SWI/SNF-related matrix-associated actin-dependent regulator of chromatin subfamily A member 2 (P51531 whole entry): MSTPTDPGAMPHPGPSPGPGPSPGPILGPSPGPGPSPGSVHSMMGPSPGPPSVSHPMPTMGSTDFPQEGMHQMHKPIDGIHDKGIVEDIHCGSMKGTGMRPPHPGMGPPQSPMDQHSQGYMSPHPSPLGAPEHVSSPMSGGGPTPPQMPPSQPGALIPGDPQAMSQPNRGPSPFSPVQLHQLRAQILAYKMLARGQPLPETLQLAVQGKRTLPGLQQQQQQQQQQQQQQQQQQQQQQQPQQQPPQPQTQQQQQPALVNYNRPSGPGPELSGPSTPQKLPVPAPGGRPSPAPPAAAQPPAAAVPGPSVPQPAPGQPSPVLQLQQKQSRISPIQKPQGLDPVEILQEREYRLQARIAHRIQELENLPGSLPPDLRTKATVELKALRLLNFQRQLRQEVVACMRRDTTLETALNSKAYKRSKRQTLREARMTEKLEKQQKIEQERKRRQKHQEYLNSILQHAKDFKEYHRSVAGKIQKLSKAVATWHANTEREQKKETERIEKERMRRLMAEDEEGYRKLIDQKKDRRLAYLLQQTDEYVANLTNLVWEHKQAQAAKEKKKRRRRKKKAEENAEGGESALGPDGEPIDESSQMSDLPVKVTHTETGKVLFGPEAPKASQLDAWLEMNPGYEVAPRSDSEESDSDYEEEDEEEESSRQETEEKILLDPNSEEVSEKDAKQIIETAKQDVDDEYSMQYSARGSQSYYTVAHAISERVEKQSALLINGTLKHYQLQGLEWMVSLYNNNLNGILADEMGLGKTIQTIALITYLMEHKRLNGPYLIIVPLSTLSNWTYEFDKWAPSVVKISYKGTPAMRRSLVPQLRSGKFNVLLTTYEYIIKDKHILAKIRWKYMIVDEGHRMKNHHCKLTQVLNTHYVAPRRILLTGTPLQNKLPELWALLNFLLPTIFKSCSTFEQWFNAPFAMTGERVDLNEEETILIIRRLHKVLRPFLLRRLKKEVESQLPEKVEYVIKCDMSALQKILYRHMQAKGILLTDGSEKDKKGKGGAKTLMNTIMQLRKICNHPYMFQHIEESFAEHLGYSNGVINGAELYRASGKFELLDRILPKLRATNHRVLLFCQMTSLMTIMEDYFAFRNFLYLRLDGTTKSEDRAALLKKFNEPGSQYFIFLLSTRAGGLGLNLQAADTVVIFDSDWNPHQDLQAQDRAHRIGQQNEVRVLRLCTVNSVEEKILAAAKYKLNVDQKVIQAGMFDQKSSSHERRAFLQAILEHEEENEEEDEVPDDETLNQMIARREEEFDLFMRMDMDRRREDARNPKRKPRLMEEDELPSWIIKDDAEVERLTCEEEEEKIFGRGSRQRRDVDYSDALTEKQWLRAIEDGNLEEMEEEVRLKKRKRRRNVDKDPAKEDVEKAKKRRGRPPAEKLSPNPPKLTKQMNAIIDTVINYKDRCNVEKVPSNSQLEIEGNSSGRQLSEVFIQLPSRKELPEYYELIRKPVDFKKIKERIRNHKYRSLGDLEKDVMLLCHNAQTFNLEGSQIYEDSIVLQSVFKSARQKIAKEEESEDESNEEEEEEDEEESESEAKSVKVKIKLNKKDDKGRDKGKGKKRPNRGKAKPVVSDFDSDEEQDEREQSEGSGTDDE

For `COc1ccc(CCNC(=O)COC(=O)C23CC4CC(CC(C4)C2)C3)cc1`, the IC50 [1] was 35.9 µM (inactive), the IC50 [2] was 2.17 µM (active) and the IC50 [3] was 28.6 µM (inactive).

For `O=C1NC(=O)N(c2ccccc2)C(=O)/C1=C/c1coc2ccc(O)cc2c1=O`, the EC50 [4] was > 300 µM (not active), the EC50 [5] was > 300 µM (not active) and the CC50 [6] was 100 µM (active). For the same compound, the IC50 [7] was 110 µM (active).

For `CCOc1ccc(NC(=O)CSc2nncc(=O)n2N)cc1`, the IC50 [1] was 35.9 µM (inactive), the IC50 [2] was 12 µM (inactive) and the IC50 [3] was 35.9 µM (inactive).

With `CCN(CC)CCCNc1nc2ccccc2c2nc(-c3ccncc3)nn12` the EC50 [8] was 32.5 µM (inactive), the AC50 [9] was 6.19 µM (active) and the EC50 [10] was > 120 µM (not active). The AC50 [11] was 10.4 µM (active), the AC50 [12] was 40.4 µM (active) and the EC50 [13] was > 91.2 µM (inactive). For the same compound, the EC50 [14] was 16.5 µM (active).

With `O=C(N/N=C/c1ccc(Br)cc1)c1ccc(Br)o1` the IC50 [15] was 8.79 µM (active), the IC50 [16] was 6.85 µM (active) and the IC50 [17] was 17.1 µM (active). The IC50 [18] was 9.11 µM (active).

For `Cc1nn(Cc2ccccc2)c(C)c1C(=O)OCC(=O)Nc1ccccc1SCC#N`, the IC50 [1] was 35.9 µM (inactive), the IC50 [2] was 2.41 µM (active) and the IC50 [3] was 1.33 µM (active).

For `Cc1cccc(CN2CCN(c3ccccn3)CC2)c1`, the EC50 [19] was 0.128 µM (active) and the EC50 [20] was 92.5 µM (inactive).

With `Cn1c(=O)c2c(nc(S)n2CCCc2ccccc2)n(C)c1=O` the CC50 [6] was 100 µM (active), the IC50 [7] was 16.1 µM (active) and the IC50 [21] was 60.7 µM (inactive).
